In series [1] the target is T1, CRP (Homo sapiens, UniProt P02741).
T1 sequence (P02741 19-224): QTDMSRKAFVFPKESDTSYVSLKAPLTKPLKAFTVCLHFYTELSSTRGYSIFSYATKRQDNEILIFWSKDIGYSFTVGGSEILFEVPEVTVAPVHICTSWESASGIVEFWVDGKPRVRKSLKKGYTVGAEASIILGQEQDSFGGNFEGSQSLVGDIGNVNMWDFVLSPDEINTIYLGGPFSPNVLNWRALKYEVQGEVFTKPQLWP
Put plainly: Roche immunoturbidimetric assay: pure CRP. It is filed as binding. Details: The final concentrations were 0.73 μM native pentameric CRP; from tissue. The settings on record: pure CRP in TC buffer; read-out: IC50 (μM), SD; inhibition of Roche CRP immunoreactivity. The method, then: (i) Human CRP at ˜90 μg/ml (3.9 μM monomer or 0.78 μM pentamer) in TC buffer was prepared from a stock solution; a 75 μl aliquot was used in the assay.
(ii) Compounds were prepared from stock solutions at up to 10 mM in TC (labelled S1). They were serially diluted with TC buffer (100 μl ligand+200 μl TC) to provide up to 9 dilutions, S2-S10. A TC buffer control (S0) was included in each assay.
(iii) A 15 μl volume of each ligand solution was incubated with 75 μl of CRP for 1 h at 37° C. The final concentrations were CRP pentamer=0.73 μM, ligands S1-S10=625-0.03 μM, corresponding to ligand:CRP pentamer ratios of 853-0.04.
(iv) CRP concentrations were measured by the Roche microparticle-enhanced immunoturbidimetric assay (10) on the COBAS MIRA autoanalyser, and results expressed as a percentage of the CRP control.
(v) Data were plotted using Sigmaplot (V14) using the 4 parameter logistic curve y=min+(max−min)/(1+(x/EC50)^−Hill slope) to calculate EC50.
(vii) All compounds were assayed in comparison with a highly purified preparation of BPC8, that was prepared by Carbogen AMCIS AG, dissolved in sterile water and diluted into TC buffer as required.
The immunoturbidimetric CRP assay on the Roche COBAS MIRA Plus autoanalyser, utilises two different sized microparticles that are covalently coupled with two different monoclonal antibodies, which recognise different CRP epitopes. The assay was developed by Roche for clinical measurement of CRP serum and plasma with high sensitivity and a very wide dynamic range. Serendipitously, one of the two antibodies binds to an epitope present on the ligand binding B-face of CRP. Thus, when the binding pocket is occupied by ligand and, especially, when the B-face is occluded by the B-face to B-face interaction of two native CRP pentamers produced by cross linking via our unique bivalent ligands, the assay fails to detect the CRP. In contrast, the CRP is all detected and assayed normally by other assays that disrupt the crosslinking and/or use antibodies which recognise different, non-occluded, epitopes. Inhibition of CRP recognition in the Roche assay is thus a convenient tool to monitor the efficacy and potency of complex formation between our unique ligands and CRP.

Series [2] has as its target T1, CRP. Put plainly: Size exclusion chromatography of CRP/ligand cross linking. It is filed as binding. Details: The final concentrations were 0.73 μM native pentameric CRP; from tissue. The settings on record: CRP/ligand complex re-chromatographed in absence of free ligand. The method, then:
(i) Ligands were diluted to 0.5 mM in TC buffer from up to 10 mM stocks. Serial dilutions were prepared as required. […]
(iii) The complex was chromatographed on a Superdex200 column (10/300 GL; 24 ml bed volume), connected to the ÅKTA100 Explorer HPLC system, and equilibrated and eluted in TC buffer at 0.5 ml/min. Eluates were monitored at 280 nm and fractions (0.5 ml) collected as required.
Size exclusion chromatography on a Superdex 200 column equilibrated and eluted with TC buffer pH 8.0, and calibrated with standard globular marker proteins and with human CRP, the native CRP pentamer (Mr 115 kDa) eluted at 13.9 ml (range 13.7-14.0 ml, n=10).

The target of series [3] is T1, CRP. Briefly: In vivo clearance of CRP/ligand complexes generated in vivo in mice. Also noted: The final concentrations were 0.73 μM native pentameric CRP; from tissue. As for the experimental part: (i) Two groups of 8 wild-type C57BL/6 mice (male; 23-27 weeks old) were used: group 1 (control) and group 2 (treated).
(§1) (ii) Both groups of animals were given 200 μl of human CRP (5 mg/ml in azide-free TC buffer) subcutaneously on day 1.
(iii) On day 2 (+18 h), control animals were given a 200 μl intravenous bolus of TC buffer. Treated animals were given a 200 μl iv bolus of ligand (prepared at 5 mg/ml in TC buffer).
(iv) One timed blood sample and a terminal blood sample were collected from each mouse into heparinised tubes and weighed. This generated data in quadruplicate at 4 time points, normally 30, 60, 120 and 360 minutes.
(v) ^125I radiolabel was measured (Perkin Elmer Wizard; protocol #1) in whole blood to quantify total CRP. In some cases, electroimmunoassay as above was also used to determine total CRP concentration.
(vi) Plasma was prepared and free CRP determined by Roche immunoassay.
(§2) Subcutaneous injection of human CRP provided circulating CRP concentrations with which to test for effects of our ligands in vivo. (Table 4).

Series [4] has as its target T1, CRP. Put plainly: MIRA immunoturbidimetric assay. It is filed as binding. Also noted: The final concentrations were 0.73 μM native pentameric CRP; from tissue. An excerpt:
The CRP immunoturbidimetric assay on the Roche COBAS MIRA Plus autoanalyser, utilises two different sized latex particles that are covalently coupled with two different monoclonal antibodies with specificity for different CRP epitopes (10). The assay was validated by Roche for measurement of native pentameric CRP, for which it has high sensitivity and specificity and a high upper detection limit; it was calibrated against a standard produced in our laboratory. Serendipitously, one of the assay's antibodies binds to an epitope present on the ligand binding B face of CRP. […]
CRP concentrations were measured in the presence and absence of ligands by the COBAS MIRA autoanalyser. […] CRP concentration was determined spectrophotometrically (Beckman Coulter DU 650) in quartz cuvettes with a 1 cm light path, by measuring A280 after correction for absorbance at 320 nm (light scattering) and using the measured absorption coefficient A(1%, 1 cm)=17.5 for human CRP (7). […]
Data are expressed as measured CRP (mg/L) against final total ligand concentration (M) and were plotted using Sigmaplot (V14) using the 4 parameter logistic curve y=min+(max−min)/(1+(x/EC50)^−Hill slope) to calculate EC50. Where appropriate, samples were also measured in whole normal human serum following the addition of a known amount of human CRP. […]

Series [5] has as its target T1, CRP. Put plainly: In vivo clearance of preformed CRP/ligand complexes in mice. Details: from tissue. The method, then:
(i) CRP at 1 mg/ml in azide-free TC buffer (containing, in some experiments, ˜10^6 cpm/ml of ^125I-CRP) was incubated with a 5-fold molar excess of ligand. A control (ligand-free) sample was also prepared. Cross linking of CRP was confirmed by SEC in TC buffer of a small sample of complex.
(ii) Two groups of eight wild-type C57BL/6 mice (male; 23-27 weeks old) were used.
The complex or control (200 μl, 200 μg CRP) was injected into the tail vein of each mouse. A single timed collection of blood was taken from the tail vain of each mouse; a second terminal sample was also collected. This yielded 4 samples each at 30, 60, 120 and 180 min for control and treated groups.
(iii) Blood samples were weighed and CRP measured in the Roche assay and, in some cases by electroimmunoassay (4, 13). ^125I-CRP was measured by gamma counting (Perkin Elmer Wizard; protocol #1).
Complexes were prepared in vitro using ^125I-labelled CRP and an excess of ligand, and the mixture was then injected intravenously into mice. Clearance of CRP was monitored by counting of the ^125I-CRP tracer and stable CRP-ligand complexes were detected by lack of CRP detection in the Roche assay of the plasma samples. The formation of CRP/ligand complexes was confirmed by size exclusion chromatography before use in each in vivo experiment.

Series [6] in a line: Circulating CRP concentrations after subcutaneous CRP in mice. Type of series: in vivo. As to conditions: individual mice. As for the experimental part: as §1, §2

Where “and” joins values, the source holds several entries; their conditions need not be identical. Equal values may be shown once.

Regarding `O=C(NC(C(=O)O)[C@H]1CN2CCC1CC2)c1ccc(C(=O)NC(C(=O)O)[C@H]2CN3CCC2CC3)cc1` (stereo partly drawn) [Compound P2B-B, (R,2R,2′R)-2,2′-(terephthaloylbis(azanediyl))bis(2-((R)-quinuclidin-3-yl)acetic acid)], the IC50 came to 0.64 ± 0.17 µM on CRP [1] and 0.6 µM against CRP [4]. In addition, on CRP [2], the Stable to rechromatography result is given as “Yes”. For the same compound, the “Time CRP:ligand complex generated in vivo was stable” value on CRP [3] is reported as “at least 1 hour”.

Compound `O=C(NC(C(=O)O)[C@H]1CN2CCC1CC2)c1cccc(C(=O)NC(C(=O)O)[C@H]2CN3CCC2CC3)c1` (stereo partly drawn) [Compound P2B-E, 2-[[3-[[carboxy-[(3R)-quinuclidin-3-yl]methyl]carbamoyl]benzoyl]amino]-2-[(3R)-quinuclidin-3-yl]acetic acid] registered a concentration for half-maximal inhibition (IC50) at CRP [4] of 2.02 µM.

For the compound `O=C(O)C(NC(=O)[C@H]1CC[C@H](C(=O)NC(C(=O)O)[C@H]2CN3CCC2CC3)CC1)[C@H]1CN2CCC1CC2` (stereo partly drawn) [Compound P2B-H, 2-[[4-[[-carboxy-[(3R)-quinuclidin-3-yl]methyl]carbamoyl]cyclohexanecarbonyl]amino]-2-[(3R)-quinuclidin-3-yl]acetic acid], the IC50 at CRP [1] came out at 0.6 µM. Also, the Stable to rechromatography entry at CRP [2] is on record as “Yes”. On CRP [3], the “Time complex generated in vivo was partially stable” value was “at least 3 hours”.

Consider `O=C(NC([C@H]1CN2CCC1CC2)P(=O)(O)OCc1ccccc1)c1ccc(C(=O)NC([C@H]2CN3CCC2CC3)P(=O)(O)OCc2ccccc2)cc1` (some centres unmarked) [Compound P3A-C], for which, on CRP [5] (complexes formed in vitro), the “Time complexes stable in vivo” value was “at least 6 hours”. Besides, the IC50 on CRP [1] was 0.91 µM.

For the compound “CRP: Human C-reactive protein, isolated and purified, injected into mice”, the “Circulating CRP concentration” value was 58.2 mg/L and 69.2 mg/L in series [6] (16 h after subcutaneous 1 mg CRP); 44.0 mg/L and 57.2 mg/L in series [6] (18 h after subcutaneous 1 mg CRP); 24.0 mg/L and 32.2 mg/L in series [6] (24 h after subcutaneous 1 mg CRP). Also, the “t1/2 of clearance of CRP” value with CRP [5] (intravenous, 125I-CRP tracer) was around 2.17 h.

The values above are taken from patent publication US20230118142A1, “AGENTS FOR USE IN THE TREATMENT OF TISSUE DAMAGE” (UCL BUSINESS LTD, priority 2020, published 2023).
